Values of other authors in publication PMC11756063, “The fibronectin-targeting PEG-FUD imaging probe shows enhanced uptake during fibrogenesis in experimental lung fibrosis” (Respiratory Research, 2025).

Tested on: fibrotic mouse lung
Details: ref [9], [13], [65]
From the text: This study has potential impact for the field of molecular imaging of lung fibrosis, as methods that permit more precise and intricate assessment of disease progression are needed in clinical practice. In pulmonary fibrosis, potential molecular imaging targets being developed represent various disease mechanisms, such as activity of pathogenic fibroblasts and macrophages, ECM deposition, as well as detection of pro-fibrotic integrins.

In the case of `OC[C@H]1OC(O)[C@H]([18F])[C@@H](O)[C@@H]1O` (stereo partly shown) [[^18F]FDG, [^18F]-fluorodeoxyglucose], the “pattern of uptake over the bleomycin model” value is listed as “peak uptake in the early phase of the bleomycin model that decline during the established phase”.
